# Key:
# Test in all cases: relative viability (nuclei count vs DMSO), 5 days (fraction); higher = more cells survive
# [1] = compound: O=C(C[C@H]1NCCC[C@@H]1O)Cn1cnc2cc(Br)c(Cl)cc2c1=O (racemic) [Halofuginone] + Cc1cc(Nc2cc(N3CCN(C)CC3)nc(Sc3ccc(NC(=O)C4CC4)cc3)n2)n[nH]1 [Tozasertib] (partner 0.1 µM)
# In short: (§1)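 Lung cancer cell lines were seeded in 1536-well plates and dosed by pin tool the next day, with either a single drug or a fixed anchor-drug dose combined with five library-drug doses (not always all listed) spaced in √10 steps. Five days later, one step fixed the cells and stained their nuclei (final 0.05% Triton X-100, 1% formaldehyde, 1 ug/ml Hoechst), and nuclei were counted on 4× images. Relative viability is the nuclei count in treated wells divided by the count in vehicle wells, and each value is the median of duplicate plates.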
# [2] = compound: O=C(C[C@H]1NCCC[C@@H]1O)Cn1cnc2cc(Br)c(Cl)cc2c1=O (racemic) [Halofuginone] + Nc1nc2[nH]cc(CCc3ccc(C(=O)N[C@@H](CCC(=O)O)C(=O)O)cc3)c2c(=O)[nH]1 [Pemetrexed] (partner 0.2 µM)
# In short: as §1
# Decitabine + Foretinib = compound: Nc1ncn([C@H]2C[C@H](O)[C@@H](CO)O2)c(=O)n1 [Decitabine] + COc1cc2c(Oc3ccc(NC(=O)C4(C(=O)Nc5ccc(F)cc5)CC4)cc3F)ccnc2cc1OCCCN1CCOCC1 [Foretinib] (partner 0.25 µM)
# In short: as §1
# Halofuginone + OSI-027 = compound: O=C(C[C@H]1NCCC[C@@H]1O)Cn1cnc2cc(Br)c(Cl)cc2c1=O (racemic) [Halofuginone] + COc1cccc2cc(-c3nc([C@H]4CC[C@H](C(=O)O)CC4)n4ncnc(N)c34)[nH]c12 [OSI-027] (partner 0.5 µM)
# In short: as §1
Cell Line,relative viability ([1]; first compound 0.001 µM),relative viability ([1]; first compound 0.003162 µM),relative viability ([1]; first compound 0.01 µM),relative viability ([1]; first compound 0.03162 µM),relative viability ([1]; first compound 0.1 µM),relative viability ([2]; first compound 0.001 µM),relative viability ([2]; first compound 0.003162 µM),relative viability ([2]; first compound 0.01 µM),relative viability ([2]; first compound 0.03162 µM),relative viability ([2]; first compound 0.1 µM),relative viability (Decitabine + Foretinib; first compound 0.1265 µM),relative viability (Decitabine + Foretinib; first compound 0.4 µM),relative viability (Decitabine + Foretinib; first compound 1.265 µM),relative viability (Decitabine + Foretinib; first compound 4 µM),relative viability (Halofuginone + OSI-027; first compound 0.001 µM),relative viability (Halofuginone + OSI-027; first compound 0.003162 µM),relative viability (Halofuginone + OSI-027; first compound 0.01 µM),relative viability (Halofuginone + OSI-027; first compound 0.03162 µM),relative viability (Halofuginone + OSI-027; first compound 0.1 µM),relative viability (Decitabine + Foretinib; first compound 0.04 µM)
EPLC-272H,0.241,0.333,0.318,0.279,0.247,0.42,0.359,0.308,0.345,0.358,0.611,0.0722,0.304,0.35,0.342,0.278,0.262,0.29,0.257,
NCI-H1975,1.04,0.848,0.737,0.354,0.13,0.281,0.297,0.274,0.263,0.146,0.546,0.265,0.317,0.31,0.751,0.744,0.67,0.473,0.348,0.63
NCI-H3122,0.38,0.381,0.356,0.414,0.166,0.207,0.191,0.205,0.189,0.198,0.775,0.715,0.539,0.575,0.894,1.05,0.867,0.943,0.384,0.898
COR-L 105,0.337,0.288,0.385,0.329,0.346,1.09,1.05,0.973,0.981,0.964,0.98,0.881,0.633,0.554,0.667,0.637,0.603,0.656,0.466,1.2
BEN,0.535,0.528,0.456,0.511,0.482,0.871,0.618,0.788,0.647,0.551,0.566,0.35,0.437,0.38,0.341,0.287,0.299,0.288,0.247,0.596
NCI-H1915,0.463,0.462,0.416,0.448,0.299,0.499,0.546,0.513,0.392,0.465,0.396,0.326,0.314,0.326,0.616,0.62,0.643,0.549,0.544,0.534
NCI-H650,0.912,0.772,0.709,0.67,0.426,0.981,0.954,0.946,0.825,0.696,0.667,0.506,0.363,0.319,0.531,0.59,0.506,0.492,0.533,0.929
NCI-H1650,0.559,0.384,0.357,0.29,0.192,0.339,0.388,0.375,0.325,0.284,0.855,0.553,0.512,0.301,0.653,0.634,0.639,0.774,0.141,0.903
NCI-H2009,0.897,0.754,0.746,0.659,0.366,1.04,0.999,0.999,0.977,0.548,0.808,0.627,0.494,0.438,0.835,0.795,0.655,0.468,0.264,1.21
COR-L23,0.249,0.218,0.198,0.153,0.106,0.212,0.19,0.2,0.192,0.183,0.605,0.473,0.353,0.246,0.769,0.86,0.72,0.677,0.302,0.597
NCI-H460,0.611,0.572,0.438,0.444,0.19,0.0584,0.0659,0.0638,0.0536,0.0574,0.816,0.619,0.43,0.193,0.715,0.728,0.614,0.557,0.131,0.948
LCLC-103H,0.503,0.59,0.446,0.443,0.425,0.479,0.362,0.455,0.443,0.498,0.807,0.717,0.636,0.519,0.474,0.447,0.446,0.428,0.451,0.945
HCC-827,0.419,0.39,0.427,0.398,0.456,0.238,0.237,0.266,0.27,0.239,0.383,0.333,0.3,0.279,0.746,0.783,0.76,0.902,0.742,0.351
NCI-H322M,0.461,0.468,0.462,0.467,0.258,0.633,0.63,0.554,0.586,0.398,0.872,0.669,0.485,0.473,0.596,0.652,0.488,0.49,0.346,0.818
NCI-H1666,0.656,0.644,0.56,0.596,0.704,0.883,0.78,0.904,0.878,0.806,0.86,0.776,0.662,0.68,1.01,0.869,0.766,0.955,0.852,0.91
NCI-H1793,0.418,0.359,0.276,0.34,0.226,0.906,0.734,0.7,0.843,0.515,0.641,0.533,0.351,0.406,0.299,0.253,0.297,0.288,0.196,0.631

# Source: the supplement of paper PMC10307832
